From US20080200475A1 (Pfizer Inc., priority 2005, published 2008) come the findings set out here.

For this assay, the target named is T1, Human P2Y12 (Homo sapiens, UniProt Q9H244).
T1 construct: expressed in transfected cells; host or cells: HEK cells (membrane preparation)
Kind of assay: [^33P]-2MeS-ADP Binding to Recombinant Human P2Y12 Membranes (Assay 3). The following applies: for IC50 / Ki: membranes of HEK cells transfected with P2Y12, competition with ^33P 2MeS-ADP, multiple lines = multiple runs. The protocol:
3. Human P2Y12 Recombinant Cell Membrane Binding Assay with ^33P 2MeS-ADP.
The ability of a test compound to bind to the P2Y12 receptor was evaluated in a recombinant cell membrane binding assay. In this competitive binding assay, the test compound competed against a radiolabelled agonist for binding to the P2Y12 receptor, expressed on the cell membrane. Inhibition of binding of the labeled material was measured and correlated to the amount and potency of the test compound. Data from this assay are presented in Table F. This binding assay is a modification of the procedure in Takasaki, J. et. al, Mol. Pharmacol., 2001, Vol. 60, pg. 432.
HEK cells were transfected with the pDONR201P2Y12 vector and cultured in MEM with GlutaMAX I, Earle's salts, 25 mM HEPES (Gibco #42360-032) containing 10% dialyzed FBS (Gibco #26400-044), 100 μM nonessential amino acids (Gibco #11140-050), 1 mM sodium pyruvate (Gibco #11360-070), 0.05% geneticin (Gibco #10131-027), 3 μg/mL blasticidin (Fluka brand from Sigma #15205), and 0.5 μg/mL puromycin (Sigma #P-8833).
Confluent cells were washed once with cold DPBS (Gibco #14190-136). Fresh DPBS was added and the cells were scraped and centrifuged at 500×g for 5 minutes at 4° C. The cell pellets were resuspended in TEE buffer (25 mM Tris, 5 mM EDTA, 5 mM EGTA) containing 1 protease inhibitor cocktail tablet (Roche #1 873 580) per 50 mL (called TEE+Complete) and can be flash frozen at this point.
In one embodiment, frozen cell pellets were used to prepare the membranes. In that embodiment, the frozen cell pellets were thawed on ice. In another embodiment, cell pellets may be used without flash freezing before moving on to the next step.
Cell pellets were resuspended in TEE buffer+Complete and homogenized in a glass dounce for 12 strokes. The cell suspension was centrifuged at 500×g for 5 minutes at 4° C. The supernatant was saved and centrifuged at 20,000×g for 20 minutes at 4° C. This supernatant was discarded and the cell pellet resuspended in TEE buffer+Complete and homogenized in a glass dounce for 12 strokes. This suspension was centrifuged at 20,000×g for 20 minutes at 4° C. and the supernatant discarded. The pellet was resuspended in assay buffer (50 mM Tris, 100 mM NaCl, 1 mM EDTA) containing one protease inhibitor cocktail tablet per 50 mL, and can be flash frozen as 1 mL aliquots at this point.
[…] A 1 mM DMSO intermediate stock was made in a dilution plate and from this the seven dilutions were made to 5× the final concentration in assay buffer containing 0.02% BSA.
To a polypropylene assay plate (Costar #3365) the following were added: a) 30 μL of assay buffer containing one protease inhibitor cocktail tablet per 50 mL; b) 30 μL of 1 nM ^33P 2MeS-ADP made in assay buffer containing 0.02% BSA and 12.5 mg/mL ascorbic acid; 30 μL of cold 1.5 μM 2MeS-ADP for the positive control wells, or assay buffer containing 0.02% BSA and 12.5 mg/mL ascorbic acid for the negative control wells, or 5× drug dilution; and 60 μL of 1 ug/well membranes.
The plates were incubated at room temperature for 1 hour. The reaction was stopped using a cell harvester to transfer the reaction mixture onto GF/B UniFilter plates (Perkin Elmer #6005177), and washed three times with wash buffer (50 mM Tris), filtering between each wash. The filter plates were dried for approximately 20 minutes in an oven at 50° C. Back seals were adhered to the filter plates and 25 uL of Microscint 20 scintillation fluid (Perkin Elmer #6013621) were added. The filter plates were sealed, shaken for 30 minutes, and counted on a Top Count. Data were analyzed using a four-parameter curve fit with a fixed minimum and maximum experimentally defined as the average positive and negative controls on each plate, and with a hill slope equal to one. […]

Where [1] appears, read: highest concentration tested 10 μM.

SMILES strings stand for the structures. Values joined by “and” are separate entries in the source; they are usually repeats but may differ in a detail not shown here. Equal values may be shown once.

T1 sequence (Q9H244 whole entry): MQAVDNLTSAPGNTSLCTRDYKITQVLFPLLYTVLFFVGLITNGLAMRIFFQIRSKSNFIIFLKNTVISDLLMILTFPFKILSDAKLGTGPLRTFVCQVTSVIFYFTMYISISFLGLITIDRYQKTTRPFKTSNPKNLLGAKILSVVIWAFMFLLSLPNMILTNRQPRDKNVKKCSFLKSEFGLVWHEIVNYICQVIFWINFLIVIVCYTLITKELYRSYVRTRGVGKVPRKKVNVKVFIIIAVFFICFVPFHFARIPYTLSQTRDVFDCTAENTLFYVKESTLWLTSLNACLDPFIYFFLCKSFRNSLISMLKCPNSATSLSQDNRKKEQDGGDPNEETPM

In the case of `C=C(C)C(=O)OCCNC(=O)Nc1nc(N2CCN(C(=O)c3ccc(-c4ccccc4)cc3)CC2)c2cc(CC)sc2n1` [Example 16, 2-{[({4-[4-(1,1′-Biphenyl-4-ylcarbonyl)piperazin-1-yl]-6-ethylthieno[2,3-d]pyrimidin-2-yl}amino)carbonyl]amino}ethyl 2-methylacrylate], the IC50 was found to be 0.244 µM and the Ki stood at 0.14 µM. The inhibition at 10 µM under setting [1] was determined as 80.8%.

For `CCc1cc2c(N3CCN(C(=O)c4ccc(-c5ccccc5)cc4)CC3)nc(NC(=O)NCCC(=O)O)nc2s1` [Example 19, N-[({4-[4-(1,1′-Biphenyl-4-ylcarbonyl)piperazin-1-yl]-6-ethylthieno[2,3-d]pyrimidin-2-yl}amino)carbonyl]-beta-alanine], the IC50 worked out at 0.006 µM and the inhibition constant Ki came to 0.003 µM. For the same compound, under setting [1], the inhibition at 10 µM worked out at 88%.

With `CCc1cc2c(N3CCN(C(=O)c4ccc(-c5ccccc5)cc4)CC3)nc(NC(=O)CCC(=O)O)nc2s1` [Example 38, N-{4-[4-(Biphenyl-4-carbonyl)piperazin-1-yl]-6-ethylthieno[2,3-d]pyrimidin-2-yl}succinamic acid], the 50% inhibitory concentration (IC50) was 0.013 µM and the Ki was 0.008 µM. Also, the inhibition at 1 µM (highest concentration tested 1 μM) came to 88%.

In the case of `CCOC(=O)CCNC(=O)Nc1nc(N2CCN(C(=O)c3ccc(-c4ccccc4)cc3)CC2)c2cc(CC)sc2n1` [Example 17, ethyl N-[({4-[4-(1,1′-biphenyl-4-ylcarbonyl)piperazin-1-yl]-6-ethylthieno[2,3-d]pyrimidin-2-yl}amino)carbonyl]-beta-alaninate], the 50% inhibitory concentration (IC50) was determined as 0.157 µM and the inhibition constant Ki is 0.09 µM. The inhibition at 10 µM under setting [1] was 89.9%.

As to `CCc1cc2c(N3CCN(C(=O)c4ccc(-c5ccccc5)cc4)CC3)nc(NC(=O)CN)nc2s1` [Example 41, 2-Amino-N-{4-[4-(biphenyl-4-carbonyl)piperazin-1-yl]-6-ethylthieno[2,3-d]pyrimidin-2-yl}acetamide], the concentration for half-maximal inhibition (IC50) is 0.156 µM and the Ki came to 0.085 µM. Besides, the inhibition at 10 µM under setting [1] came out at 85%.

On to `CCc1cc2c(N3CCN(C(=O)c4ccc(-c5ccccc5)cc4)CC3)nc(NC(=O)COCc3ccccc3)nc2s1` [Example 27, 2-Benzyloxy-N-{4-[4-(biphenyl-4-carbonyl)piperazin-1-yl]-6-ethylthieno[2,3-d]pyrimidin-2-yl}acetamide], for which the IC50 is 0.204 µM and the Ki turned out to be 0.119 µM. Also, the inhibition at 10 µM under setting [1] worked out at 84%.

With `CCc1cc2c(N3CCN(C(=O)c4ccc(-c5ccccc5)cc4)CC3)nc(NC(=O)[C@H]3CCCN3)nc2s1` [Example 40, (R)-Pyrrolidine-2-carboxylic acid{4-[4-(biphenyl-4-carbonyl)piperazin-1-yl]-6-ethylthieno[2,3-d]pyrimidin-2-yl}amide], the concentration for half-maximal inhibition (IC50) was determined as 0.403 µM and the Ki is 0.227 µM. For the same compound, the inhibition at 10 µM under setting [1] was 75.6%.

On to `CCc1cc2c(N3CCN(C(=O)c4ccc(-c5ccccc5)cc4)CC3)nc(NC(=O)c3cccnc3)nc2s1` [Example 29, N-{4-[4-(Biphenyl-4-carbonyl)piperazin-1-yl]-6-ethylthieno[2,3-d]pyrimidin-2-yl}nicotinamide], for which the half-maximal inhibitory concentration (IC50) amounted to 0.078 µM and the inhibition constant Ki is 0.043 µM. Further, the inhibition at 10 µM under setting [1] was 89%.

`CCc1cc2c(N3CCN(C(=O)c4ccc(-c5ccccc5)cc4)CC3)nc(NC(=O)[C@@H]3CCCN3)nc2s1` [Example 39, (S)-Pyrrolidine-2-carboxylic Acid{4-[4-(Biphenyl-4-carbonyl)piperazin-1-yl]-6-ethylthieno[2,3-d]pyrimidin-2-yl}amide]: the IC50 turned out to be 0.179 µM and the Ki was 0.087 µM. Further, under setting [1], the inhibition at 10 µM was 81%.

For the compound `CCc1cc2c(N3CCN(C(=O)c4ccc(-c5ccccc5)cc4)CC3)nc(NC(=O)NCC(=O)O)nc2s1` [Example 18, N-[({4-[4-(1,1′-Biphenyl-4-ylcarbonyl)piperazin-1-yl]-6-ethylthieno[2,3-d]pyrimidin-2-yl}amino)carbonyl]glycine], the IC50 was found to be 0.0043 µM and the Ki is 0.002 µM. Also, the inhibition at 10 µM under setting [1] was 95.4%.

Regarding `CCc1cc2c(N3CCN(C(=O)c4ccc(-c5ccccc5)cc4)CC3)nc(NC(=O)COC)nc2s1` [Example 23, N-{4-[4-(Biphenyl-4-carbonyl)piperazin-1-yl]-6-ethylthieno[2,3-d]pyrimidin-2-yl}-2-methoxyacetamide], the IC50 was 0.0624 µM and the Ki was found to be 0.036 µM. For the same compound, the inhibition at 10 µM under setting [1] amounted to 93.2%.

As for `CCc1cc2c(N3CCN(C(=O)c4ccc(-c5ccccc5)cc4)CC3)nc(NC(=O)C(C)C)nc2s1` [Example 24], the IC50 came to 0.163 µM and the inhibitory constant (Ki) is 0.089 µM. The inhibition at 10 µM under setting [1] was found to be 90%.

For `CCc1cc2c(N3CCN(C(=O)c4ccc(-c5ccccc5)cc4)CC3)nc(NC(=O)NCCCO)nc2s1` [Example 20, N-{4-[4-(1,1′-Biphenyl-4-ylcarbonyl)piperazin-1-yl]-6-ethylthieno[2,3-d]pyrimidin-2-yl}-N′-(3-hydroxypropyl)urea], the IC50 came out at 0.072 µM and the Ki is 0.047 µM. Besides, the inhibition at 10 µM under setting [1] stood at 89%.

As to `CCc1cc2c(N3CCN(C(=O)c4ccc(-c5ccccc5)cc4)CC3)nc(NC(=O)c3ccncc3)nc2s1` [Example 34, {4-[4-(Biphenyl-4-carbonyl)piperazin-1-yl]-6-ethylthieno[2,3-d]pyrimidin-2-yl}isonicotinamide], the IC50 worked out at 0.582 µM and the Ki came to 0.328 µM. Also, the inhibition at 10 µM under setting [1] stood at 74.8%.

With `CCc1cc2c(N3CCN(C(=O)c4ccc(-c5ccccc5)cc4)CC3)nc(NC(=O)CCNC(=O)OCc3ccccc3)nc2s1` [Example 28, Benzyl(2-{4-[4-(biphenyl-4-carbonyl)piperazin-1-yl]-6-ethylthieno[2,3-d]pyrimidin-2-ylcarbamoyl}ethyl)carbamate], the IC50 came to 0.0381 µM and the inhibitory constant (Ki) turned out to be 0.021 µM. Further, under setting [1], the inhibition at 10 µM came to 92.7%.

Turning to `CCOC(=O)CNC(=O)Nc1nc(N2CCN(C(=O)c3ccc(-c4ccccc4)cc3)CC2)c2cc(CC)sc2n1` [Example 15, Ethyl N-[({4-[4-(1,1′-biphenyl-4-ylcarbonyl)piperazin-1-yl]-6-ethylthieno[2,3-d]pyrimidin-2-yl}amino)carbonyl]glycinate], the concentration for half-maximal inhibition (IC50) came out at 0.066 µM and the Ki came to 0.038 µM. Also, the inhibition at 10 µM under setting [1] was determined as 94.5%.

Consider `CCc1cc2c(N3CCN(C(=O)CC(F)(F)F)CC3)nc(NC(=O)NCCC(=O)O)nc2s1` [Example 49, N-[({6-Ethyl-4-[4-(3,3,3-trifluoropropanoyl)piperazin-1-yl]thieno[2,3-d]pyrimidin-2-yl}amino)carbonyl]-beta-alanine], for which the concentration for half-maximal inhibition (IC50) is 0.449 µM and 0.308 µM and 0.254 µM; the Ki was 0.234 µM and 0.168 µM and 0.14 µM. In addition, under setting [1], the “% Inhibition, [^33P]-2MeS-ADP Binding to Recombinant Human P2Y12 Membranes (Assay 3)” value is 94.4% and 92%; the inhibition at 10 µM came out at 88.9%.

Turning to `CCc1cc2c(N3CCN(C(=O)c4ccc(-c5ccccc5)cc4)CC3)nc(NC(C)=O)nc2s1` [Example 25, N-{4-[4-(Biphenyl-4-carbonyl)piperazin-1-yl]-6-ethylthieno[2,3-d]pyrimidin-2-yl}acetamide], the 50% inhibitory concentration (IC50) was 0.159 µM and the inhibitory constant (Ki) was found to be 0.093 µM. For the same compound, under setting [1], the inhibition at 10 µM amounted to 91%.
